Earlier results, collected in article PMC9773016, “Strebluses E–H, four new stilbene-like derivatives from the stems of Streblus ilicifolius” (RSC Advances, 2022).

Target: Mushroom tyrosinase (Agaricus bisporus, UniProt C7FF04)
Set-up: method as in PMID 34306141, PMID 33939585
Settings: value from previous study of the same authors; read-out: tyrosinase inhibitory effect IC50

Sequence of Mushroom tyrosinase (C7FF04 1-392): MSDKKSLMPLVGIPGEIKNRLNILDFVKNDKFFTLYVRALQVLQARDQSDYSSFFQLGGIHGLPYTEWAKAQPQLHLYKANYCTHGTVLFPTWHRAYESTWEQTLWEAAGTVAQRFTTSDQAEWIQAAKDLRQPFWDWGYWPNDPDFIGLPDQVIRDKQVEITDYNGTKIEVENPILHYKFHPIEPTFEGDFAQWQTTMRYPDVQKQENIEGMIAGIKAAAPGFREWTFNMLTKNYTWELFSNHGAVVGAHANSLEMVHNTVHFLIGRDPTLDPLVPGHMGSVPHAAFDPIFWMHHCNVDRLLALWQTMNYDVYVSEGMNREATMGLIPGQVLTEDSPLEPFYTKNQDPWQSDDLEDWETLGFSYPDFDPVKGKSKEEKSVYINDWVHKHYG

CC(C)=CC[C@@]12OC(C)(C)O[C@@H]1CC(/C=C/c1ccc(O)cc1O)=CC2=O [Streblus C]
IC50: 10 nM
